We go through 14 molecules from US12419305B2, “Antimicrobial compositions” (Firmenich SA, priority 2018, dated 2025).

Read-outs that look alike come from different tables or passages of the source.

The assay concerns C. xerosis ATCC 373. Nature of the assay: BCT test (bacterial contact time), 120 s, log reduction / effect fraction; CI by Compusyn. The class given is cell-based. The note with it: Corynebacterium xerosis, ATCC373, 2 min; for log reduction at 0.75 % strength: dose 0.75% w/v; for log reduction at 1 % strength: dose 1.0% w/v; for log reduction at 1.25 % strength: dose 1.25% w/v; for log reduction at 1.5 % strength: dose 1.5% w/v; for log reduction at 0.5 % strength: dose 0.5% w/v; for log reduction at 0.6 % strength: dose 0.6% w/v; for log reduction at 0.1 % strength: dose 0.1% w/v; for log reduction at 0.15 % strength: dose 0.15% w/v. As to the method: C. xerosis: Suspensions of the C. xerosis ATCC 373 strain were prepared as follows: Stock cultures (stored at −80° C.) were thawed and subcultured onto Tryptic Soy Agar media with Tween 80 (TSA-TW80), and incubated at 37° C. for 48 h. The primary cultures were subcultured onto TSA-TW80 again, to prepare the secondary cultures. Single colonies of the secondary cultures were selected and used to inoculate 30 ml brain heart infusion broth with Tween 80 (BHI-TW80). The inoculated broth was incubated at 37° C. at 180 rpm for 24 h. Aliquots (1 ml) of the 24 h culture were inoculated into 30 ml of fresh BHI-TW80 broth media, and incubated at 37° C. at 180 rpm for 48 h. Aliquots (2-3 ml) of the 48 h culture were inoculated into four 50 ml of fresh BHI-TW80 broth media, and incubated at 37° C. 180 rpm for 4-6 hrs. When the OD 600 nm reached the target value of 1.6, cells were harvested by centrifugation at 5000 rpm for 10 min, and then resuspended in the same fresh BHI-TW80 at a concentration of 10^9 to 10^10 cfu/mL. This suspension was used as the bacterial suspension for the BCT test.
BCT Test: Test compositions at a range of concentrations (either combinations of more than one perfume ingredient, and comparative compositions comprising the single perfume ingredients) were prepared in ethanol. Five replicates of each test composition were added into 96-well microtiter plates (120 μl per well), with row B containing control compositions containing the ethanol solution alone. 120 μl of bacterial cell suspensions at a concentration of approximately 1×10^8 bacteria per mL (as prepared above) were added to each well of the microtiter plate. The bacterial suspensions were incubated with the test solutions for 45, 60, or 120 seconds. Following the incubation of the bacterial suspensions with the test solutions, serial dilutions of the bacterial suspensions were generated (three serial 1:10 dilutions, followed by 17 serial 1:2 dilutions), in multiwell microtiter plates.
Each plate was sealed and incubated at 37° C. under agitation (180 rpm). After incubation, the turbidity of the wells (OD600 nm) was determined using a Tecan microplate reader. Turbid wells were regarded as positive growth, due to the presence of viable cells. The total number of viable cells (log CFU) for each sample was calculated. And the log reduction for each test composition at the final concentration (dose) was calculated against the control sample of the ethanol solution.
Determination of Synergy via the Combination Index (CI): The CI was calculated using Compusyn software (ComboSyn, Inc., as created by Dr. Dorothy Chou in 2005), according to the manufacturer's instructions. The concentration of each test composition (combinations of more than one perfume ingredient, and comparative compositions comprising the single perfume ingredients used to generate the combination) and their corresponding effect fraction was entered, and the corresponding CI calculated.
When the calculated CI values were less than 0.9, the combination of perfume ingredients was regarded as having synergistic effect. When the calculated CI was between 1.0 a 0.9, the combination of perfume ingredients was regarded as having an additive effect. When the calculated CI was greater than 1.0, the combination of perfume ingredients was regarded as having an antagonistic effect.

[1] abbreviates: dose 0.25% w/v, contact 120 s, 25% EtOH, read-out: Log reduction.
Where [2] appears, read: dose 0.3% w/v, contact 120 s, 25% EtOH, read-out: Log reduction.
The mark [3] stands for this setting: dose 0.4% w/v, contact 120 s, 25% EtOH, read-out: Log reduction.
Setting [4] is: dose 0.2% w/v, contact 120 s, 25% EtOH, read-out: Log reduction.

Turning to `O=c1ccc2ccccc2o1` [Coumarine, 2H-chromen-2-one], where the note is “contact 120 s, 25% EtOH”, the log reduction at 0.75 % strength was -0.2, the log reduction at 1 % strength worked out at 0.8, the log reduction at 1.25 % strength came to 2.6 and the log reduction at 1.5 % strength was 2.7.
With `C/C=C/c1ccc(O)c(OC)c1` [Isoeugenol, 2-Methoxy-4-(prop-1-en-1-yl)phenol], under setting [1], the log reduction at 0.25 % strength amounted to 2.4. The log reduction at 0.3 % strength under setting [2] turned out to be 3.4. In addition, the log reduction at 0.4 % strength under setting [3] is 5. Also, where the note is “contact 120 s, 25% EtOH”, the log reduction at 0.5 % strength turned out to be 6.3 and the log reduction at 0.6 % strength is 6.6.
As for `CC(C=O)Cc1ccc2c(c1)OCO2` (stereo not shown) [Heliopropanal, 3-(1,3-Benzodioxol-5-yl)-2-methylpropanal], the log reduction at 0.2 % strength stood at 0.1, the log reduction at 0.25 % strength turned out to be 0.3, the log reduction at 0.3 % strength amounted to 1.4 and the log reduction at 0.35 % strength was 1.8. Besides, the log reduction at 0.4 % strength turned out to be 2.2.
`C=C(C)[C@@H]1CC=C(CO)CC1` [Perycorolle, (S)-(−)-(4-Isopropenyl-1-cyclohexenyl)methanol]: under “contact 120 s, 25% EtOH”, the log reduction at 0.1 % strength was found to be 0.2 and the log reduction at 0.15 % strength came to 3.4. The log reduction at 0.2 % strength under setting [4] was determined as 4.8. In addition, the log reduction at 0.25 % strength under setting [1] came to 6.5. Besides, the log reduction at 0.3 % strength under setting [2] is 6.4.
For the molecule `CC(CCO)CCc1ccccc1` (stereo not shown) [Phenylhexanol, 3-methyl-5-phenyl-1-pentanol], for the setting “contact 120 s, 25% EtOH”, the log reduction at 0.15 % strength came out at 2.5. Moreover, the log reduction at 0.2 % strength under setting [4] came out at 4.2. Besides, the log reduction at 0.25 % strength under setting [1] worked out at 5.1. Moreover, the log reduction at 0.3 % strength under setting [2] is 5.9.
On to `CC(C)=CCC/C(C)=C\CO` [Nerol, (Z)-3,7-dimethyl-2,6-octadien-1-ol], for which the log reduction at 0.08 % strength (dose 0.08% w/v, contact 120 s, 25% EtOH) was -0.1. Moreover, the log reduction at 0.1 % strength (contact 120 s, 25% EtOH) was 0.5. Moreover, the log reduction at 0.12 % strength (dose 0.12% w/v, contact 120 s, 25% EtOH) turned out to be 2.6. For the same molecule, the log reduction at 0.14 % strength (dose 0.14% w/v, contact 120 s, 25% EtOH) was 4.9. In addition, the log reduction at 0.16 % strength (dose 0.16% w/v, contact 120 s, 25% EtOH) is 7.2.
Take `OC/C=C/c1ccccc1` [Cinnamic alcohol, (2E)-3-phenyl-2-propen-1-ol]: the log reduction at 0.25 % strength under setting [1] worked out at 0. Also, where the note is “contact 120 s, 25% EtOH”, the log reduction at 0.5 % strength was 2.9 and the log reduction at 0.6 % strength was found to be 4.3. The log reduction at 0.7 % strength (dose 0.7% w/v, contact 120 s, 25% EtOH) came to 6. For the setting “dose 0.8% w/v, contact 120 s, 25% EtOH”, the log reduction at 0.8 % strength turned out to be 7.2.
Take `CC(C)=CCC/C(C)=C/CO` [Geraniol Pur]: where the note is “contact 120 s, 25% EtOH”, the log reduction at 0.1 % strength turned out to be 0.9 and the log reduction at 0.15 % strength stood at 4.8. Where the note is “dose 0.125% w/v, contact 120 s, 25% EtOH”, the log reduction at 0.125 % strength is 3.6. For the same molecule, the log reduction at 0.175 % strength (dose 0.175% w/v, contact 120 s, 25% EtOH) stood at 6.8. Besides, the log reduction at 0.2 % strength under setting [4] worked out at 7.
For `Cc1ccc2c(c1)OCC(=O)CO2` [Calone, 7-methyl-2H-1,5-benzodioxepin-3(4H)-one], for the setting “contact 120 s, 25% EtOH”, the log reduction at 0.5 % strength was determined as 0.2, the log reduction at 0.75 % strength was 0.6, the log reduction at 1 % strength was found to be 3.2 and the log reduction at 1.25 % strength amounted to 6. Under “contact 120 s, 25% EtOH”, the log reduction at 1.5 % strength is 6.8.
For the molecule `CC(=O)OCc1ccccc1` [Benzyl acetate, benzyl acetate], under setting [1], the log reduction at 0.25 % strength came to 0. Moreover, the log reduction at 0.4 % strength under setting [3] came out at 1.1. Besides, where the note is “contact 120 s, 25% EtOH”, the log reduction at 0.5 % strength was 2.8, the log reduction at 0.75 % strength turned out to be 4.6 and the log reduction at 1 % strength is 5.2.
For `C=CCc1ccc(O)c(OC)c1` [Eugenol F, 2-Methoxy-4-(prop-2-en-1-yl)phenol], under “contact 120 s, 25% EtOH”, the log reduction at 0.1 % strength worked out at 0.1 and the log reduction at 0.5 % strength stood at 6.3. Further, the log reduction at 0.2 % strength under setting [4] is 0.4. Also, under setting [1], the log reduction at 0.25 % strength worked out at 1.8. Moreover, the log reduction at 0.3 % strength under setting [2] turned out to be 2.7. In addition, the log reduction at 0.4 % strength under setting [3] was 5.1.
For `CC1=CCC(C(C)(C)O)CC1` (stereo not shown) [Terpineol Ord, 2-(4-Methylcyclohex-3-en-1-yl)propan-2-ol], the log reduction at 0.25 % strength under setting [1] came to 2.9. Further, under setting [2], the log reduction at 0.3 % strength was 3.9. Further, where the note is “dose 0.35% w/v, contact 120 s, 25% EtOH, read-out: Log reduction”, the log reduction at 0.35 % strength is 6. Moreover, the log reduction at 0.4 % strength under setting [3] was found to be 6.4.
In the case of `CCCCCCC1CCC(=O)O1` (stereo not shown) [Decal], under “contact 120 s, 25% EtOH”, the log reduction at 0.1 % strength was determined as 0.1 and the log reduction at 0.15 % strength came to 2.2. Further, the log reduction at 0.2 % strength under setting [4] was 4.6. Besides, under setting [1], the log reduction at 0.25 % strength worked out at 5.4. Also, the log reduction at 0.3 % strength under setting [2] was found to be 6.1.
As to `CCC(C)(O)CCCC(C)C` (stereo not shown) [Tetralinol, 3,7-Dimethyl-3-octanol], the log reduction at 0.05 % strength (dose 0.05% w/v, contact 120 s, 25% EtOH) is 0.1. The log reduction at 0.2 % strength under setting [4] is 5.7. Under setting [1], the log reduction at 0.25 % strength was 6.4. Also, the log reduction at 0.3 % strength under setting [2] was 6.5.
